Assay results from US20260240158A1, “MICROBIOCIDAL THIAZOLE DERIVATIVES” (SYNGENTA CROP PROTECTION AG, priority 2019, published 2026).
Read-outs that look alike come from different tables or passages of the source.

Columns and labels:
[1] = test system: Mycosphaerella graminicola (Septoria tritici); experiment: Mycosphaerella graminicola (Septoria tritici) / liquid culture (Septoria blotch); type: cell-based; settings: Zymoseptoria tritici, read-out: control of Mycosphaerella graminicola
[2] = test system: Phaeosphaeria nodorum (Septoria nodorum); experiment: Phaeosphaeria nodorum (Septoria nodorum) / wheat / leaf disc preventative (glume blotch); type: in vivo; settings: 200 ppm, 5-7 days after application, vs untreated control
Description: Phaeosphaeria Nodorum (Septoria nodorum)/Wheat/Leaf Disc Preventative (Glume Blotch) Wheat leaf segments cv. […] The leaf disks are inoculated with a spore suspension of the fungus 2 days after application. […] P3.

Pyrenophora teres = Pyrenophora teres / barley / leaf disc preventative (net blotch); type: in vivo; settings: 200 ppm, 5-7 days after application, vs untreated control
Description: Pyrenophora teres/Barley/Leaf Disc Preventative (Net Blotch) Barley leaf segments cv. […] The leaf segments are inoculated with a spore suspension of the fungus 2 days after application. […] P5.

[3] = 20 ppm, liquid culture, growth inhibition photometrically 4-5 days after application, vs untreated control

## CCCCNC(=O)c1nc(Nc2cnsc2)sc1C [Compound P1, N-butyl-2-(isothiazol-4-ylamino)-5-methyl-thiazole-4-carboxamide]
[1]; [3]
  inhibition of growth at 20 ppm: ≥ 80%

## Cc1sc(Nc2cnsc2)nc1C(=O)NCC(C)(C)C [Compound P2, N-(2,2-dimethylpropyl)-2-(isothiazol-4-ylamino)-5-methyl-thiazole-4-carboxamide]
[1]; [3]
  inhibition of growth at 20 ppm: ≥ 80%

## Cc1sc(Nc2cnsc2)nc1C(=O)NCCC(C)C [Compound P3, N-isopentyl-2-(isothiazol-4-ylamino)-5-methyl-thiazole-4-carboxamide]
[1]; [3]
  inhibition of growth at 20 ppm: ≥ 80%
[2]
  control of Phaeosphaeria nodorum: at least 80%

## Cc1sc(Nc2cnsc2)nc1C(=O)NC(C)c1ccccc1 (stereo not shown) [Compound P4, 2-(isothiazol-4-ylamino)-5-methyl-N-(1-phenylethyl) thiazole-4-carboxamide]
[1]; [3]
  inhibition of growth at 20 ppm: ≥ 80%

## Cc1sc(Nc2cnsc2)nc1C(=O)NC1CCC12CCCC2 (stereo not shown) [Compound P5, 2-(isothiazol-4-ylamino)-5-methyl-N-spiro 3.4 octan-3-yl-thiazole-4-carboxamide]
[1]; [3]
  inhibition of growth at 20 ppm: ≥ 80%
Pyrenophora teres
  control of Pyrenophora teres: at least 80%

## Cc1sc(Nc2cnsc2)nc1C(=O)NC1CCC1(C)C (stereo not shown) [Compound P6, N-(2,2-dimethylcyclobutyl)-2-(isothiazol-4-ylamino)-5-methyl-thiazole-4-carboxamide]
[1]
  inhibition of growth at 20 ppm: ≥ 80%

## COCC(=O)N(c1cnsc1)c1nc(C(=O)NC2CCC23CCCC3)c(C)s1 (stereo not shown) [Compound P8, 2-isothiazol-4-yl-(2-methoxyacetyl) amino-5-methyl-N-spiro 3.4 octan-3-yl-thiazole-4-carboxamide]
[1]; [3]
  inhibition of growth at 20 ppm: ≥ 80%

## Cc1sc(N(C#N)c2cnsc2)nc1C(=O)NC1CCC12CCCC2 (stereo not shown) [Compound P9, 2-cyano(isothiazol-4-yl)amino-5-methyl-N-spiro 3.4 octan-3-yl-thiazole-4-carboxamide]
[1]; [3]
  inhibition of growth at 20 ppm: ≥ 80%
